Patent publication US7988950B2, “Contrast agents endowed with high relaxivity for use in magnetic resonance imaging (MRI) which contain a chelating moiety with polyhydroxylated substituents” (Bracco Imaging S.p.A., priority 2004, dated 2011)

Experiment: Relaxivity determination (r1p) of Gd complexes at 298 K, 20 MHz, pH 7
Type: physicochemical
Details: Table 5; 298 K, 20 MHz, pH 7; q=1 derivatives of the DTPA-monophosphonate backbone
Excerpt: As far as the relaxation enhancement property is concerned, a paramagnetic Gd(III) complex is characterized by its relaxivity (r1p) which represents the increase of the proton relaxation rate of an aqueous solution of the Gd(III) complex in comparison to the proton relaxation rate of neat water (R1^o). The relaxivity is usually measured at 298 K and 20 MHz (0.5 T).
In order to best evaluate the relaxivity properties and the parameters affecting the relaxivity of the agents of the invention, some comparative tests have been performed. In a first experiment, the relaxivity of a number of Gd-based chelated compounds having different molecular weight, all derived from the following [Gd(DTPA-monophosphonate)]^3− basic backbone structure (r1p at 20 MHz and 298K: 6.1 mM^−1s^−1) of formula
Tested compounds include the Gd-complex of the chelating compounds 1b and 2b of the invention (hereinafter Gd-1b and Gd-2b) as well as a number of different derivatives of the aforementioned backbone moiety selected in order to cover a range of molecular weights of up to about 1800 Dalton. The relaxivity of all of the tested compounds were measured at 298 K and 20 MHz and pH 7. The obtained values, listed in table 5 below (together with the structure of the compounds) have also been plotted against the MW of the complexes (see FIG. 1).
A second experiment was performed to test the relaxivity of different compounds of the invention, marketed NSA, known LDA and other systems, all containing one coordinated water molecule (q=1). The data were registered at 298K and 20 MHz and pH=7, and plotted against their corresponding MW. Relaxivity data relating to LDA P760 and P792 (LDA contrast agents) are based on literature cited below.
In addition to the above, please find below as per table 7, other relaxivity values, measured as above indicated, for some other representative compounds of the invention.

| R1p [mM⁻¹ s⁻¹] | Molecule |
| --- | --- |
| 7.9 | O=C(O)CN(CCN(CCN(CC(=O)O)[C@@H](Cc1c[nH]c2ccccc12)C(=O)O)CP(=O)(O)O)C(Cc1c[nH]c2ccccc12)C(=O)O (stereo partly drawn) [B 22836] |
| 7.9 | O=C(O)CN(CCN(CCN(CC(=O)O)[C@@H](COCc1ccccc1)C(=O)O)CP(=O)(O)O)[C@@H](COCc1ccccc1)C(=O)O [B 22666] |
| 7.7 | O=C(O)CN(CCN(CCN(CC(=O)O)[C@@H](Cc1ccccc1)C(=O)O)CP(=O)(O)O)[C@@H](Cc1ccccc1)C(=O)O [B 22606] |

Same assay, conditions: Table 6; 298K, 20 MHz, pH=7; q=1

| R1p [mM⁻¹ s⁻¹] | Molecule |
| --- | --- |
| 5.5 | O=C(O)CN1CCN(CC(=O)O)CCN(C(COCc2ccccc2)C(=O)O)CCN(CC(=O)O)CC1 (stereo not drawn) [Compound B19106] |
| 19.6 | O=C(CCC(C(=O)O)N1CCN(C(CCC(=O)NCC(COCC(COC(CO)CO)COC(CO)CO)COCC(COC(CO)CO)COC(CO)CO)C(=O)O)CCN(C(CCC(=O)NCC(COCC(COC(CO)CO)COC(CO)CO)COCC(COC(CO)CO)COC(CO)CO)C(=O)O)CCN(C(CCC(=O)NCC(COCC(COC(CO)CO)COC(CO)CO)COCC(COC(CO)CO)COC(CO)CO)C(=O)O)CC1)NCC(COCC(COC(CO)CO)COC(CO)CO)COCC(COC(CO)CO)COC(CO)CO (stereo not drawn) [Gd-3c] |
| 4.7 | O=C(O)CN(CCN(CC(=O)O)CC(=O)O)CCN(CC(=O)O)CC(=O)O [Gd-DTPA] |
| 6.5 | O=C(O)CN1CCN(C(COCc2ccccc2)C(=O)O)CCN(CC(=O)O)CCN(C(COCc2ccccc2)C(=O)O)CC1 (stereo not drawn) [Compound B19236] |
| 7.5 | O=C(O)CN1CCN(C(COCc2ccccc2)C(=O)O)CCN(C(COCc2ccccc2)C(=O)O)CCN(C(COCc2ccccc2)C(=O)O)CC1 (stereo not drawn) [Compound B19406] |
| 15 | CC(CO)(CO)COCC(CNC(=O)CCC(C(=O)O)N1CCN(C(CCC(=O)NCC(COCC(C)(CO)CO)COCC(C)(CO)CO)C(=O)O)CCN(C(CCC(=O)NCC(COCC(C)(CO)CO)COCC(C)(CO)CO)C(=O)O)CCN(C(CCC(=O)NCC(COCC(C)(CO)CO)COCC(C)(CO)CO)C(=O)O)CC1)COCC(C)(CO)CO (stereo not drawn) [Gd-2c] |
| 13.84 | O=C(CCC(C(=O)O)N1CCN(C(CCC(=O)NCC(COC(CO)CO)COC(CO)CO)C(=O)O)CCN(C(CCC(=O)NCC(COC(CO)CO)COC(CO)CO)C(=O)O)CCN(C(CCC(=O)NCC(COC(CO)CO)COC(CO)CO)C(=O)O)CC1)NCC(COC(CO)CO)COC(CO)CO (stereo not drawn) [Gd-1c] |
| 4.7 | O=C(O)CN1CCN(CC(=O)O)CCN(CC(=O)O)CCN(CC(=O)O)CC1 [Gd-DOTA] |

Same assay, conditions: Table 7; measured as above indicated (298 K, 20 MHz)

| R1p [mM⁻¹ s⁻¹] | Molecule |
| --- | --- |
| 16.7 | CC1(N(CC(=O)O)CC(=O)O)CN(C(CCC(=O)N(CCN(CCC(=O)NC(CO)(CO)CO)CCC(=O)NC(CO)(CO)CO)CCN(CCC(=O)NC(CO)(CO)CO)CCC(=O)NC(CO)(CO)CO)C(=O)O)CCN(C(CCC(=O)N(CCN(CCC(=O)NC(CO)(CO)CO)CCC(=O)NC(CO)(CO)CO)CCN(CCC(=O)NC(CO)(CO)CO)CCC(=O)NC(CO)(CO)CO)C(=O)O)C1 (stereo not drawn) [Gd-15a] |
| 24 | O=C(O)CCC(C(=O)O)N1CCN(Cc2cccc(C(=O)NCC(CNC(=O)C(O)C(O)C(O)C(O)CO)(CNC(=O)C(O)C(O)C(O)C(O)CO)CNC(=O)C(O)C(O)C(O)C(O)CO)c2)CCN(C(CCC(=O)O)C(=O)O)CCN(C(CCC(=O)O)C(=O)O)CC1 (stereo not drawn) [Gd-1d] |

| Molecule | R1p [mM⁻¹ s⁻¹] |
| --- | --- |
| O=C(CC[C@@H](C(=O)O)N1CCN([C@@H](CCC(=O)NC(COC2OC(CO)C(O)C(O)C2O)(COC2OC(CO)C(O)C(O)C2O)COC2OC(CO)C(O)C(O)C2O)C(=O)O)CCN([C@@H](CCC(=O)NC(COC2OC(CO)C(O)C(O)C2O)(COC2OC(CO)C(O)C(O)C2O)COC2OC(CO)C(O)C(O)C2O)C(=O)O)CCN([C@@H](CCC(=O)NC(COC2OC(CO)C(O)C(O)C2O)(COC2OC(CO)C(O)C(O)C2O)COC2OC(CO)C(O)C(O)C2O)C(=O)O)CC1)NC(COC1OC(CO)C(O)C(O)C1O)(COC1OC(CO)C(O)C(O)C1O)COC1OC(CO)C(O)C(O)C1O (stereo partly drawn) [Gd-7c] | 20.4 |

Experiment: 1/T1 NMRD profiles / relaxivity over a range of magnetic field strengths
Type: physicochemical
Details: 25° C., 1 mM aqueous solution; from 0.2 to 3 MHz
Excerpt: As an example, the relaxivity profile of the gadolinium complex of the chelating ligand of the invention 2b (hereinafter referred to as Gd-2b), in the above magnetic field range, has been compared with that of a marketed NSA, i.e. Magnevist®, and that of a blood pool agent, i.e. the macromolecular adduct between Gd-DTPA(BOM)3 and BSA (Bovine Serum Albumin) (FIG. 6).
The corresponding profile for the above blood pool agent is quite different.
The stability of the relaxivity properties shown by the compounds of the invention was tested. In a first experiment, the 1/T1 NMRD profiles for some compounds of the invention were acquired over a range of magnetic field strengths ranging from 0.01 to 130 MHz. The profile shown by the Gd-1b chelated compound of the invention is included in FIG. 4, while corresponding profiles for chelated compounds Gd-1c, Gd-2c and Gd-3c are included in FIGS. 5 and 5 bis. A comparison has been also performed for compound Gd-2b over a corresponding profile registered for GD-DTPA (Magnevist®), a marketed NSA, and for GD-DOTA-BSA, a well known blood pool agent.
Conversely, the relaxivity improvement shown by the blood pool agent rapidly falls dawn over the same range of magnetic field strength.

| Molecule | relaxivity profile over magnetic field strength (NMRD) |
| --- | --- |
| Gd-DTPA | quite stable though very low |
